Article PMC13210772, “Dual FLT3/MAPK14 Proteolysis-Targeting Chimera (PROTAC) Induces Potent Acute Myeloid Leukemia Cell Death” (Pharmaceuticals, 2026)

Experiments:
[1] = molecular target: T1, MAP4K3 (Homo sapiens, UniProt Q8IVH8); experiment: NanoBRET CELLinib128; type: binding; conditions: 1 µM; 100% no effect, 0% complete tracer displacement
T1 construct: Full-length kinase ORF (Promega, Madison, WI, USA) cloned in frame with a NanoLuc-vector was transfected into HEK293T cells; host or cells: HEK293T
Procedure: (§1) To get an impression about the binding strength of the PROTAC MA191 and the reference inhibitor MA68 to other kinases besides FLT3-ITD the binding on a kinase panel of further 128 representative protein kinases at 1 μM concentration was tested using the NanoBRET^TM cellular target engagement assay (CELLinib128 assay, CELLinib GmbH, Frankfurt, Germany). […] In none of the 128 kinases MA191 was able to displace the tracer (inhibitor) used by more than 50%, Table S1, Supplementary Information).
(§2) The CELLinib128 assay was performed by CELLinib GmbH, Frankfurt (Germany) as described previously. In brief: Full-length kinase ORF (Promega, Madison, WI, USA) cloned in frame with a NanoLuc-vector was transfected into HEK293T cells in Opti-MEM without phenol red (Life Technologies, Carlsbad, CA, USA) at a density of 2 × 10^5 cells/mL using FuGENE HD (Promega, E2312) and proteins were allowed to express for 20 h. For CDKs, where indicated below, an excess of an activator without an NLuc-fusion was cotransfected. […] The system was allowed to equilibrate at 37 °C for 2 h and 5% CO2 prior to BRET measurements. For PKCs, a chemical activator PMA was added in a final concentration of 1 µM was added together with test compounds and tracers (Promega, V1171). To measure BRET, NanoBRET^TM NanoGlo substrate + extracellular NanoLuc inhibitor (Promega, N2160) were added as per the manufacturer’s protocol, and filtered luminescence was measured (450 nm BP filter (donor) and 610 nm LP filter (acceptor)). For the 1-shot test compounds, data were normalized to the tracer control and the background control or control compound plateau and an average and SD were calculated. […] For the control compounds competitive displacement data were normalized to the tracer Ctrl and the background Ctrl and then plotted and fitted using GraphPad Prism 10 software using a normalized 3-parameter curve fit with the following equation: Y = 100/(1 + 10^X−LogIC50).

[2] = molecular target: T2, JAK3 (Homo sapiens, UniProt P52333); experiment: NanoBRET CELLinib128; type: binding; conditions: 100% no effect, 0% complete tracer displacement, read-out: Tracer bound
T2 construct: Full-length kinase ORF (Promega, Madison, WI, USA) cloned in frame with a NanoLuc-vector was transfected into HEK293T cells; host or cells: HEK293T
T2 sequence (P52333 whole entry): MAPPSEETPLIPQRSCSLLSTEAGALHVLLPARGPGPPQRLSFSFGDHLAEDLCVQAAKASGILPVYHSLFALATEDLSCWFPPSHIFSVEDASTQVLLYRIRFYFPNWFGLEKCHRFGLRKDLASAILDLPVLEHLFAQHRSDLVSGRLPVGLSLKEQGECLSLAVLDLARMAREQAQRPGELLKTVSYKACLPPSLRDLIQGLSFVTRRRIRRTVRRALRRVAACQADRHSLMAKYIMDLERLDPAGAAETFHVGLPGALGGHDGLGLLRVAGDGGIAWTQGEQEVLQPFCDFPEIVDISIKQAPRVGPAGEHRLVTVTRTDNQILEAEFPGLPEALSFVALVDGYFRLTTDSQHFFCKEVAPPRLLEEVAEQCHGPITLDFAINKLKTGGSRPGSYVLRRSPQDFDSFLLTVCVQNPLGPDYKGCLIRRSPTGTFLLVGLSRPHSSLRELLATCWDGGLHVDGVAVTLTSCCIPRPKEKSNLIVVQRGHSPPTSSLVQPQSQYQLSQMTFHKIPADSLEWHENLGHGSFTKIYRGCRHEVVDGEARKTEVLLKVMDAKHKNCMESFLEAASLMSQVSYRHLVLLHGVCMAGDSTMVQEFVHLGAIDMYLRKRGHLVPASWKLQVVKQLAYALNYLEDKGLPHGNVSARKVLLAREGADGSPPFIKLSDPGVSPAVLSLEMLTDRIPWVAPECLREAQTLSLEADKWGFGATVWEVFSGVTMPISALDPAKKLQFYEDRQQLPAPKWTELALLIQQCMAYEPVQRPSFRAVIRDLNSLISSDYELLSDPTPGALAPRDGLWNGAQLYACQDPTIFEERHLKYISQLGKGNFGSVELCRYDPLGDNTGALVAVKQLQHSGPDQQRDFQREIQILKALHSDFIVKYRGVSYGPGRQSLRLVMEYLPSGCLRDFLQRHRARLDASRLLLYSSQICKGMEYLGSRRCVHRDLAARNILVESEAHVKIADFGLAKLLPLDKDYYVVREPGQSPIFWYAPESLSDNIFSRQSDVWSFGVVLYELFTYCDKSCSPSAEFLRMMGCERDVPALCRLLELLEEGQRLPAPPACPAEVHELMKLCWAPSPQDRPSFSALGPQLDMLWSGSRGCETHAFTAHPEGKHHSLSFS
Procedure: as §1, §2

[3] = molecular target: T3, NEK3 (Homo sapiens, UniProt P51956); experiment: NanoBRET CELLinib128; type: binding; conditions: 100% no effect, 0% complete tracer displacement, read-out: Tracer bound
T3 construct: Full-length kinase ORF (Promega, Madison, WI, USA) cloned in frame with a NanoLuc-vector was transfected into HEK293T cells; host or cells: HEK293T
Procedure: as §1, §2

[4] = molecular target: T4, TEK (Homo sapiens, UniProt Q02763); experiment: NanoBRET CELLinib128; type: binding; conditions: 100% no effect, 0% complete tracer displacement, read-out: Tracer bound
T4 construct: Full-length kinase ORF (Promega, Madison, WI, USA) cloned in frame with a NanoLuc-vector was transfected into HEK293T cells; host or cells: HEK293T
Procedure: as §1, §2

[5] = molecular target: T5, STK36 (Homo sapiens, UniProt Q9NRP7); experiment: NanoBRET CELLinib128; type: binding; conditions: 100% no effect, 0% complete tracer displacement, read-out: Tracer bound
T5 construct: Full-length kinase ORF (Promega, Madison, WI, USA) cloned in frame with a NanoLuc-vector was transfected into HEK293T cells; host or cells: HEK293T
Procedure: as §1, §2

[6] = molecular target: T6, JAK2 (Homo sapiens, UniProt O60674); experiment: NanoBRET CELLinib128; type: binding; conditions: 1 µM; 100% no effect, 0% complete tracer displacement
T6 construct: Full-length kinase ORF (Promega, Madison, WI, USA) cloned in frame with a NanoLuc-vector was transfected into HEK293T cells; host or cells: HEK293T
Procedure: as §1, §2

[7] = molecular target: T7, STK3 (Homo sapiens, UniProt Q13188); experiment: NanoBRET CELLinib128; type: binding; conditions: 100% no effect, 0% complete tracer displacement, read-out: Tracer bound
T7 construct: Full-length kinase ORF (Promega, Madison, WI, USA) cloned in frame with a NanoLuc-vector was transfected into HEK293T cells; host or cells: HEK293T
Procedure: as §1, §2

[8] = molecular target: T8, STK35 (Homo sapiens, UniProt Q8TDR2); experiment: NanoBRET CELLinib128; type: binding; conditions: 100% no effect, 0% complete tracer displacement, read-out: Tracer bound
T8 construct: Full-length kinase ORF (Promega, Madison, WI, USA) cloned in frame with a NanoLuc-vector was transfected into HEK293T cells; host or cells: HEK293T
Procedure: as §1, §2

[9] = molecular target: T9, CSNK2A2 (Homo sapiens, UniProt P19784); experiment: NanoBRET CELLinib128; type: binding; conditions: 100% no effect, 0% complete tracer displacement, read-out: Tracer bound
T9 construct: Full-length kinase ORF (Promega, Madison, WI, USA) cloned in frame with a NanoLuc-vector was transfected into HEK293T cells; host or cells: HEK293T
Procedure: as §1, §2

[10] = molecular target: T10, RIOK2 (Homo sapiens, UniProt Q9BVS4); experiment: NanoBRET CELLinib128; type: binding; conditions: 100% no effect, 0% complete tracer displacement, read-out: Tracer bound
T10 construct: Full-length kinase ORF (Promega, Madison, WI, USA) cloned in frame with a NanoLuc-vector was transfected into HEK293T cells; host or cells: HEK293T
T10 sequence (Q9BVS4 whole entry): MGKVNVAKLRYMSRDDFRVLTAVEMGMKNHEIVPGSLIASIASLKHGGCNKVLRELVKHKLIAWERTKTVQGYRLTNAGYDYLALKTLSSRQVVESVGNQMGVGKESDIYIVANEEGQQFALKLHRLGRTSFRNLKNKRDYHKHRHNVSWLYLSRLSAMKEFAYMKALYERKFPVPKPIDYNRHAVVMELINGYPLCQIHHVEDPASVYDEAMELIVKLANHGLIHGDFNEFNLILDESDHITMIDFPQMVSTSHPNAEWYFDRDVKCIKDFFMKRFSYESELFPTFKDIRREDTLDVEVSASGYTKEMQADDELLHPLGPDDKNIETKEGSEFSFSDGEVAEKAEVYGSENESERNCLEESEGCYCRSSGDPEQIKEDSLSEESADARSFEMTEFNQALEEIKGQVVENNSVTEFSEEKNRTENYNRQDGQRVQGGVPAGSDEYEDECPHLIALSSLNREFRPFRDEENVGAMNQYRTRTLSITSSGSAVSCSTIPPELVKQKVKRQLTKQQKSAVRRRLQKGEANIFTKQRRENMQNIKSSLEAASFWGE
Procedure: as §1, §2

[11] = molecular target: T11, MAP4K1 (Homo sapiens, UniProt Q92918); experiment: NanoBRET CELLinib128; type: binding; conditions: 100% no effect, 0% complete tracer displacement, read-out: Tracer bound
T11 construct: Full-length kinase ORF (Promega, Madison, WI, USA) cloned in frame with a NanoLuc-vector was transfected into HEK293T cells; host or cells: HEK293T
T11 sequence (Q92918 whole entry): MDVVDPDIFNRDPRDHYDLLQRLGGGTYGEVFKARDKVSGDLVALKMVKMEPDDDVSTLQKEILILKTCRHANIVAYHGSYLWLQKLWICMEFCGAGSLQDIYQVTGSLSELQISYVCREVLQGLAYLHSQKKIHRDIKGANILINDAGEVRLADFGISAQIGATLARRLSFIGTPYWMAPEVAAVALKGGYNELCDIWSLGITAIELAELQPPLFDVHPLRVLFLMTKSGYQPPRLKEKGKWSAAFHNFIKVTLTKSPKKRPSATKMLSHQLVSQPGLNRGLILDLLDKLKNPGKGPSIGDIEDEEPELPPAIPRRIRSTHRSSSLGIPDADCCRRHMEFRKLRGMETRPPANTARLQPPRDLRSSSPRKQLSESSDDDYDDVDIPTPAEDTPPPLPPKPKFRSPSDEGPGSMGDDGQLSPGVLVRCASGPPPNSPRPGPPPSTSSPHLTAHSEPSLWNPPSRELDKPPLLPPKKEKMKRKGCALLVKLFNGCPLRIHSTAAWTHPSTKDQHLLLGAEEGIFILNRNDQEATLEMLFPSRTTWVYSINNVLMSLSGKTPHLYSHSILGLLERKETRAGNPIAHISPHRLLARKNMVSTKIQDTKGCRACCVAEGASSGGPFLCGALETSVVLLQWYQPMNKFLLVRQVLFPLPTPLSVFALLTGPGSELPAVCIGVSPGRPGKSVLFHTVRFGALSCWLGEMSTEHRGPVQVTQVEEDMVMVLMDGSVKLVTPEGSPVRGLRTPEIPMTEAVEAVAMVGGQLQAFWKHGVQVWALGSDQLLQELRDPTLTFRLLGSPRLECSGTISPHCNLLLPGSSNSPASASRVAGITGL
Procedure: as §1, §2

[12] = molecular target: T12, ERN2 (Homo sapiens, UniProt Q76MJ5); experiment: NanoBRET CELLinib128; type: binding; conditions: 100% no effect, 0% complete tracer displacement, read-out: Tracer bound
T12 construct: Full-length kinase ORF (Promega, Madison, WI, USA) cloned in frame with a NanoLuc-vector was transfected into HEK293T cells; host or cells: HEK293T
Procedure: as §1, §2

[13] = molecular target: T13, TNK1 (Homo sapiens, UniProt Q13470); experiment: NanoBRET CELLinib128; type: binding; conditions: 100% no effect, 0% complete tracer displacement, read-out: Tracer bound
T13 construct: Full-length kinase ORF (Promega, Madison, WI, USA) cloned in frame with a NanoLuc-vector; host or cells: HEK293T
Procedure: as §1, §2

[14] = molecular target: T14, SNRK (Homo sapiens, UniProt Q9NRH2); experiment: NanoBRET CELLinib128; type: binding; conditions: 100% no effect, 0% complete tracer displacement, read-out: Tracer bound
T14 construct: Full-length kinase ORF (Promega, Madison, WI, USA) cloned in frame with a NanoLuc-vector was transfected into HEK293T cells; host or cells: HEK293T
Procedure: as §1, §2

[15] = molecular target: T15, SIK3 (Homo sapiens, UniProt Q9Y2K2); experiment: NanoBRET CELLinib128; type: binding; conditions: 1 µM; 100% no effect, 0% complete tracer displacement
T15 construct: Full-length kinase ORF (Promega, Madison, WI, USA) cloned in frame with a NanoLuc-vector was transfected into HEK293T cells; host or cells: HEK293T
Procedure: as §1, §2

[16] = molecular target: T16, MAP3K11 (Homo sapiens, UniProt Q16584); experiment: NanoBRET CELLinib128; type: binding; conditions: 1 µM; 100% no effect, 0% complete tracer displacement
T16 construct: Full-length kinase ORF (Promega, Madison, WI, USA) cloned in frame with a NanoLuc-vector was transfected into HEK293T cells; host or cells: HEK293T
T16 sequence (Q16584 whole entry): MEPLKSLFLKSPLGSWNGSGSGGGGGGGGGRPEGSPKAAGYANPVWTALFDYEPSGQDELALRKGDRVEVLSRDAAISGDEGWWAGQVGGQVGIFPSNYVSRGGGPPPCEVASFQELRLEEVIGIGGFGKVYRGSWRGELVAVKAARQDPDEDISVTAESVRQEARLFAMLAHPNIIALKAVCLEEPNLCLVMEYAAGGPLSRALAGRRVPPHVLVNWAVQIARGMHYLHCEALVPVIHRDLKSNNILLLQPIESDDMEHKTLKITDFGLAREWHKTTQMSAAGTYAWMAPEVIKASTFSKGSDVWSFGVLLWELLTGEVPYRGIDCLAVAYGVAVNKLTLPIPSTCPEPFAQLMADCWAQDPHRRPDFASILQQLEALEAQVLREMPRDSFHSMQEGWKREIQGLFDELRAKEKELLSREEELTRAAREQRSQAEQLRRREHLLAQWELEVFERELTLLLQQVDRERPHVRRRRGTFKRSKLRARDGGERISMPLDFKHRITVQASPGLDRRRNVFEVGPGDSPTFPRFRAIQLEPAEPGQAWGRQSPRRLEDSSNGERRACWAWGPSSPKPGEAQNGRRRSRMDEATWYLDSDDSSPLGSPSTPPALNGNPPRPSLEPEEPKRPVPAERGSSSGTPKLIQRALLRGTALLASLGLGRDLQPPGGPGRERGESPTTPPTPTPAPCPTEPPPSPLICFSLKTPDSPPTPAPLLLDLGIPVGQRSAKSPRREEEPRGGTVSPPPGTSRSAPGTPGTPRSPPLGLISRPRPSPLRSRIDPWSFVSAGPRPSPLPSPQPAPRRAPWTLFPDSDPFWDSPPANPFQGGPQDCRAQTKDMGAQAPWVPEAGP
Procedure: as §1, §2

[17] = molecular target: T17, NEK9 (Homo sapiens, UniProt Q8TD19); experiment: NanoBRET CELLinib128; type: binding; conditions: 100% no effect, 0% complete tracer displacement, read-out: Tracer bound
T17 construct: Full-length kinase ORF (Promega, Madison, WI, USA) cloned in frame with a NanoLuc-vector was transfected into HEK293T cells; host or cells: HEK293T
Procedure: as §1, §2

[18] = molecular target: T18, PRKAA2 (Homo sapiens, UniProt P54646); experiment: NanoBRET CELLinib128; type: binding; conditions: 100% no effect, 0% complete tracer displacement, read-out: Tracer bound
T18 construct: Full-length kinase ORF (Promega, Madison, WI, USA) cloned in frame with a NanoLuc-vector was transfected into HEK293T cells; host or cells: HEK293T
Procedure: as §1, §2

[19] = molecular target: T19, ULK2 (Homo sapiens, UniProt Q8IYT8); experiment: NanoBRET CELLinib128; type: binding; conditions: 100% no effect, 0% complete tracer displacement, read-out: Tracer bound
T19 construct: Full-length kinase ORF (Promega, Madison, WI, USA) cloned in frame with a NanoLuc-vector; host or cells: HEK293T
Procedure: as §1, §2

[20] = molecular target: T20, IRAK4 (Homo sapiens, UniProt Q9NWZ3); experiment: NanoBRET CELLinib128; type: binding; conditions: 1 µM; 100% no effect, 0% complete tracer displacement
T20 construct: Full-length kinase ORF (Promega, Madison, WI, USA) cloned in frame with a NanoLuc-vector was transfected into HEK293T cells; host or cells: HEK293T
T20 sequence (Q9NWZ3 whole entry): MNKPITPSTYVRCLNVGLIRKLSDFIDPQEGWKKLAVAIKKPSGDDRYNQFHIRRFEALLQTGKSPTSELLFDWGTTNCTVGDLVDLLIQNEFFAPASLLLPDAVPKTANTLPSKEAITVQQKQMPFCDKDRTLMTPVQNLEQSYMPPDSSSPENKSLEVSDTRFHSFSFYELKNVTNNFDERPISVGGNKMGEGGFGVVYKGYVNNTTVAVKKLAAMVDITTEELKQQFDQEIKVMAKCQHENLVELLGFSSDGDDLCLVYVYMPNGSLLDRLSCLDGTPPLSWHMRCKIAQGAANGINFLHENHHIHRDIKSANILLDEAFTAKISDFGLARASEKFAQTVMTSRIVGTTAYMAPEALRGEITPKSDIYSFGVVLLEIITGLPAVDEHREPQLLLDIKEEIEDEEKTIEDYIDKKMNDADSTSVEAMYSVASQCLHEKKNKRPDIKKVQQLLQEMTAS
Procedure: as §1, §2

[21] = molecular target: T21, DCLK3 (Homo sapiens, UniProt Q9C098); experiment: NanoBRET CELLinib128; type: binding; conditions: 100% no effect, 0% complete tracer displacement, read-out: Tracer bound
T21 construct: Full-length kinase ORF (Promega, Madison, WI, USA) cloned in frame with a NanoLuc-vector was transfected into HEK293T cells; host or cells: HEK293T
Procedure: as §1, §2

[22] = molecular target: T22, CDK14-CCNY (Homo sapiens, UniProt O94921); experiment: NanoBRET CELLinib128; type: binding; conditions: 1 µM; 100% no effect, 0% complete tracer displacement
T22 construct: Full-length kinase ORF (Promega, Madison, WI, USA) cloned in frame with a NanoLuc-vector was transfected into HEK293T cells; host or cells: HEK293T
Procedure: as §1, §2

[23] = molecular target: T23, FGFR4 (Homo sapiens, UniProt P22455); experiment: NanoBRET CELLinib128; type: binding; conditions: 100% no effect, 0% complete tracer displacement, read-out: Tracer bound
T23 construct: Full-length kinase ORF (Promega, Madison, WI, USA) cloned in frame with a NanoLuc-vector was transfected into HEK293T cells; host or cells: HEK293T
Procedure: as §1, §2

[24] = molecular target: PLK2 (Homo sapiens, UniProt Q9NYY3); experiment: NanoBRET CELLinib128; conditions: 1 µM; 100% no effect, 0% complete tracer displacement
[25] = test system: 128 representative protein kinases; experiment: NanoBRET CELLinib128 kinase selectivity panel, summary; conditions: 1 μM, of 128 kinases
[26] = molecular target: EPHA2 (Homo sapiens, UniProt P29317); experiment: NanoBRET CELLinib128; conditions: read-out: Tracer bound
Chain of EPHA2 (P29317 24-976): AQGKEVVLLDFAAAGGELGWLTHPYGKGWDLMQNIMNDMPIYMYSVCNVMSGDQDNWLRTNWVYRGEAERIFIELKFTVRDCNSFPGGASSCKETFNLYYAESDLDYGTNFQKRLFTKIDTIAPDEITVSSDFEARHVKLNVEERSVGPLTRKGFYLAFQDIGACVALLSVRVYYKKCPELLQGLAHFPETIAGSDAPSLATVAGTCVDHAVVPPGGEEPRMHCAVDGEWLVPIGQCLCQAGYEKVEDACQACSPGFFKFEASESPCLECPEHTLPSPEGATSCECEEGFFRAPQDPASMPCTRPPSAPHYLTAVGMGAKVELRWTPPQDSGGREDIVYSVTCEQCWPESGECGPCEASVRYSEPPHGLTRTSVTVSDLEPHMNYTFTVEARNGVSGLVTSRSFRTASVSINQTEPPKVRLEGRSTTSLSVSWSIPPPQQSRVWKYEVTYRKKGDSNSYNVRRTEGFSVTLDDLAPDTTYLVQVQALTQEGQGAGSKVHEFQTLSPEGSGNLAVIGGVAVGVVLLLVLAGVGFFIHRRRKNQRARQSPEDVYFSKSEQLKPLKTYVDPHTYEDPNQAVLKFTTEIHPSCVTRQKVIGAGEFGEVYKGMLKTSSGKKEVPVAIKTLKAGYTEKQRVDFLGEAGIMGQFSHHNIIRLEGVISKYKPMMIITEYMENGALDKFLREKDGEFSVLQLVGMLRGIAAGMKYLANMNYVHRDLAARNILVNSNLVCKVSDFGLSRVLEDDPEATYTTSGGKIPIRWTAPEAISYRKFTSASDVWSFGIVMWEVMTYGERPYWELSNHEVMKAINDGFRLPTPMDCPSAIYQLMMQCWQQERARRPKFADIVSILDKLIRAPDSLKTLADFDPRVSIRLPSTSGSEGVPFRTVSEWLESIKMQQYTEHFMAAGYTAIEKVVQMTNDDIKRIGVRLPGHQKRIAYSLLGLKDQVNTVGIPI

[27] = molecular target: IRAK1 (Homo sapiens, UniProt P51617); experiment: NanoBRET CELLinib128; conditions: read-out: Tracer bound
[28] = molecular target: T24, HCK (Homo sapiens, UniProt P08631); experiment: NanoBRET CELLinib128; type: binding; conditions: 100% no effect, 0% complete tracer displacement, read-out: Tracer bound
T24 construct: Full-length kinase ORF (Promega, Madison, WI, USA) cloned in frame with a NanoLuc-vector was transfected into HEK293T cells; host or cells: HEK293T

[29] = molecular target: T25, FYN (Homo sapiens, UniProt P06241); experiment: NanoBRET CELLinib128; type: binding; conditions: 100% no effect, 0% complete tracer displacement, read-out: Tracer bound
T25 construct: Full-length kinase ORF (Promega, Madison, WI, USA) cloned in frame with a NanoLuc-vector was transfected into HEK293T cells; host or cells: HEK293T

CNC(=O)c1cc(Oc2ccc(NC(=O)Nc3cc(C(C)(C)C)on3)cc2)ccn1 [MA68, reference compound]
Tracer bound [1]: 102.6% | remaining activity at 1 µM [2]: 111% | remaining activity at 1 µM [3]: 120% | remaining activity at 1 µM [4]: 12.6% | remaining activity at 1 µM [5]: 108% | Tracer bound [6]: 110.6% | remaining activity at 1 µM [7]: 99.3% | remaining activity at 1 µM [8]: 59.6% | remaining activity at 1 µM [9]: 110% | remaining activity at 1 µM [10]: 109% | remaining activity at 1 µM [11]: 101% | remaining activity at 1 µM [12]: 120% | remaining activity at 1 µM [13]: 114% | remaining activity at 1 µM [14]: 99.2% | Tracer bound [15]: 113.2% | Tracer bound [16]: 109.2% | remaining activity at 1 µM [17]: 109% | remaining activity at 1 µM [18]: 109% | remaining activity at 1 µM [19]: 91.7% | Tracer bound [20]: 94.3% | remaining activity at 1 µM [21]: 113% | Tracer bound [22]: 42.0% | remaining activity at 1 µM [23]: 86.5% | Tracer bound [24]: 98.1% | Target Count < 50 % tracer bound (kinases with >50% tracer displacement) [25]: 25 | remaining activity at 1 µM [26]: 10.6% | remaining activity at 1 µM [27]: 108% | remaining activity at 1 µM [28]: 120% | remaining activity at 1 µM [29]: 114%
